ChEMBL document CHEMBL1909635, “Selectivity of 3'-O-methylponkoranol for inhibition of N- and C-terminal maltase glucoamylase and sucrase isomaltase, potential therapeutics for digestive disorders or their sequelae” (Bioorg Med Chem Lett, 2011)
pKi: −log10 of the molar value.

Assays:
[1] = Inhibition of human recombinant C-terminal subunit of maltase-glucoamylase-N2 by Lineweaver-Burk plot analysis
[2] = Inhibition of human recombinant C-terminal subunit of maltase-glucoamylase-N20 by Lineweaver-Burk plot analysis
Homo sapiens [3] = organism: Homo sapiens; test: Selectivity ratio of Ki for human recombinant N-terminal Sucrase-isomaltase to Ki for human recombinant C-terminal Sucrase-isomaltase
Homo sapiens [4] = organism: Homo sapiens; test: Selectivity ratio of Ki for human recombinant N-terminal maltase-glucoamylase to Ki for human recombinant C-terminal subunit of maltase-glucoamylase-N2
Homo sapiens [5] = organism: Homo sapiens; test: Selectivity ratio of Ki for human recombinant N-terminal maltase-glucoamylase to Ki for human recombinant C-terminal subunit of maltase-glucoamylase-N20
[6] = molecular target: T1, Sucrase-isomaltase, intestinal (Homo sapiens, UniProt P14410); test: Inhibition of human recombinant C-terminal Sucrase-isomaltase by Lineweaver-Burk plot analysis
T1 sequence (P14410 2-1007 limits assumed): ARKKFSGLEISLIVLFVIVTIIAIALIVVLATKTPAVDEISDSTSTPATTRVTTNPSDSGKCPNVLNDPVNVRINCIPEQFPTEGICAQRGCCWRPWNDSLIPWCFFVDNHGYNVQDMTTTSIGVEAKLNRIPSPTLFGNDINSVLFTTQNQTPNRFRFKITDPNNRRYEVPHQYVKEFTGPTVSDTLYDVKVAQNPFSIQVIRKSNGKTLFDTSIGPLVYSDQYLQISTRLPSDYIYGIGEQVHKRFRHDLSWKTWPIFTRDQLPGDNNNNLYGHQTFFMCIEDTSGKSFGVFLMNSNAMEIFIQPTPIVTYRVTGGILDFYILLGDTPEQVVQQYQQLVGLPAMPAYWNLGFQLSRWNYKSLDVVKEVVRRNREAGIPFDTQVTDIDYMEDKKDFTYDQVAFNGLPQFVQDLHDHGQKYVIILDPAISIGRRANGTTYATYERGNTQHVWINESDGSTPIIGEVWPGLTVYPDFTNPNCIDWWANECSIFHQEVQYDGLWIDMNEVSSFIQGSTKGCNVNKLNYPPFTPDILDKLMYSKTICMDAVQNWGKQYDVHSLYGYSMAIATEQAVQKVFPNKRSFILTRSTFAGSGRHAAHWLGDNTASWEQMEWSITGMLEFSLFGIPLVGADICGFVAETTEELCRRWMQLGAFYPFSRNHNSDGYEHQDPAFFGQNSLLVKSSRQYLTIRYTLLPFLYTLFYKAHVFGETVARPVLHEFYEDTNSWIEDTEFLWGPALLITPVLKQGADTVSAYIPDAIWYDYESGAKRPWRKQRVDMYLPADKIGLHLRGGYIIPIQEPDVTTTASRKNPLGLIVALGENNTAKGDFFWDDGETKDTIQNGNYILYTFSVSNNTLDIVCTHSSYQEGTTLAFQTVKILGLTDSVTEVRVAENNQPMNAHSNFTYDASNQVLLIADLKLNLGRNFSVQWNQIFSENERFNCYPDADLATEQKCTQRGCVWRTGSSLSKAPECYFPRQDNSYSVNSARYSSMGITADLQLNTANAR
T1 sequence (P14410 1008-1827 limits assumed): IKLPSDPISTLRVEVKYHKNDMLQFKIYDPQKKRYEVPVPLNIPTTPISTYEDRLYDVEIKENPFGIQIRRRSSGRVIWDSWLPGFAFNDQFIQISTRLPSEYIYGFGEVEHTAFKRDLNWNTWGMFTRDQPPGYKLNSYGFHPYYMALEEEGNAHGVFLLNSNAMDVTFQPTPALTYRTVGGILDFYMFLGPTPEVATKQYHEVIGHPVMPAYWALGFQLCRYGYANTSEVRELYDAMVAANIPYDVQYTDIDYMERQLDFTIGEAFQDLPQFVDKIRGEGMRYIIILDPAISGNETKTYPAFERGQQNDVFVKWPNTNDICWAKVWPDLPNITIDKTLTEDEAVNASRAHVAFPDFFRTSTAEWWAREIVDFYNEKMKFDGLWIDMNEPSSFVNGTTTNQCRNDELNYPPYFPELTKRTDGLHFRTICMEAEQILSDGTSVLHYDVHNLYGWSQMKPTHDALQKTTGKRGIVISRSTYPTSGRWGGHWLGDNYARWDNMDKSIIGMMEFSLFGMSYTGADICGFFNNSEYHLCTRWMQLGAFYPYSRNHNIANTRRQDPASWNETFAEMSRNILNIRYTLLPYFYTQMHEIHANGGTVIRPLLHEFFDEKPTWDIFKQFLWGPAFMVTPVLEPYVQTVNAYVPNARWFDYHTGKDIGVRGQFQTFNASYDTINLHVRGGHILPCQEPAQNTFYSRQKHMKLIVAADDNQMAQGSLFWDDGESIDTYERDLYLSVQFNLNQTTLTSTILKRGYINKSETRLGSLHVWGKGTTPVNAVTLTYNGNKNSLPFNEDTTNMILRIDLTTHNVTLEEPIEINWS

[7] = molecular target: T1, Sucrase-isomaltase, intestinal; test: Inhibition of human recombinant N-terminal Sucrase-isomaltase by Lineweaver-Burk plot analysis
Homo sapiens [8] = organism: Homo sapiens; test: Selectivity ratio of Ki for human recombinant N-terminal maltase-glucoamylase to Ki for human recombinant C-terminal Sucrase-isomaltase

Compound | pKi ([1]; read-out: Ki) | pKi [2] | Ratio Ki (Homo sapiens [3]) | Ratio Ki (Homo sapiens [4]) | Ratio Ki (Homo sapiens [5]) | pKi [6] | pKi [7] | Ratio Ki (Homo sapiens [8]) | Ki [1]
CO[C@@H]([C@H](O)[C@@H](O)CO)[C@H](O)C[S@+]1C[C@@H](O)[C@H](O)[C@H]1CO | 7.22 | 7.26 | 5 | 10 | 10 | 8.15 | 7.46 | 70 | –
OC[C@@H]1[C@@H](O)[C@H](O)C[S@@+]1C[C@@H](O)[C@@H](O)[C@H](O)[C@@H](O)CO.[Cl-] [NEOPONKORANOL] | – | 7.02 | – | – | – | 6.99 | 6.52 | – | Not Active
